Values of other authors, collected in patent US12215100B2, “Anticancer compounds” (Pharma Mar, S.A., priority 2018, dated 2025).

Columns and labels:
Hep3B = details: liver cancer cell line; WO2002066046; cited from earlier work
HepG2 = details: liver cancer cell line; WO2002066046; cited from earlier work
SNU-216 = details: gastric cancer cell line; WO2002066046; cited from earlier work
AGS = details: gastric cancer cell line; WO2002066046; cited from earlier work
SNU-638 = details: gastric cancer cell line; WO2002066046; cited from earlier work
SK-HEP-1 = details: liver cancer cell line; WO2002066046; cited from earlier work

COC1=CC(=O)N(C(=O)[C@H]2CSC([C@H](CO)NC(=O)c3csc(/C=N/O)n3)=N2)C1 [althiomycin]
IC50 (Hep3B): 880 nM | IC50 (HepG2): 1430 nM | IC50 (SNU-216): 770 nM | IC50 (AGS): 850 nM | IC50 (SNU-638): 770 nM | IC50 (SK-HEP-1): 810 nM
